This is an account of results in patent publication US9556158B2, “Fungicidal 3-[(pyridin-2-ylmethoxyimino)(phenyl)methyl]-2-substituted-1,2,4-oxadiazol-5(2H)-one derivatives” (BAYER INTELLECTUAL PROPERTY GMBH, priority 2011, dated 2017).

SMILES strings stand for the structures.

Data set [1] relates to Phytophthora infestans. Format: in vivo. To be noted: 100 ppm of active ingredient, preventive spray, inoculation one day after treatment, evaluated 7 days after inoculation.
The conditions of data set [2]: pH 2.7, LogP, HPLC on reversed phase columns, pH 2.7, 0.1% formic acid in water / acetonitrile gradient.
The next data set relates to Botrytis cinerea. Description: Example B: in vivo preventive test on Botrytis cinerea (grey mould). To be noted: 500 ppm, preventive spray on gherkin plants, contamination after 24 hours, grading 4 to 5 days after contamination vs control plants. The method, then:
In Vivo Preventive Test on Botrytis Cinerea (Grey Mould)
The active ingredients tested are prepared by homogenization in a mixture of acetone/tween/DMSO and then diluted with water to obtain the desired active material concentration.
Gherkin plants (“Vert petit de Paris” variety), sown in starter cups on a 50/50 peat soil-pozzolana substrate and grown at 24° C., are treated at the Z11 cotyledon stage by spraying with the active ingredient prepared as described above. Plants, used as controls, are treated with the mixture of acetone/tween/DMSO/water not containing the active material.
After 24 hours, the plants are contaminated by spraying the cotyledons with an aqueous suspension of cryopreserved Botrytis cinerea spores (50 000 spores per ml). The spores are suspended in a nutrient solution composed of 10 g/L of PDB, 50 g/L of D-Fructose, 2 g/L of NH4NO3 and 1 g/L of KH2PO4. The contaminated gherkin plants are incubated at 17° C. and at 90% relative humidity.
Grading (% of efficacy) is carried out 4 to 5 days after the contamination, in comparison with the control plants.
(§1) Under these conditions, good (at least 70%) or total protection is observed at a dose of 500 ppm with the following compounds: […]

Data set [3] deals with Phytophthora infestans. Description: whole plant or invertebrate. To be noted: in Solanum lycopersicum, 120 h, read-out: % efficacy. Format: in vivo.
The next data set relates to Pyricularia oryzae. The data set can be described thus: whole plant or invertebrate. Format: in vivo. The conditions noted are these: 144 h, read-out: % efficacy.
The test system of another data set is Plasmopara viticola. Description: Example I: in vivo preventive test on Plasmopara viticola (grapevine). To be noted: 144 h, 10 ppm of active ingredient, preventive spray on young plants, evaluated 6 days after inoculation, read-out: Eff. %. On the procedure:
In Vivo Preventive Test on Plasmopara viticola (Grapevine)
To produce a suitable preparation of active compound, 1 part by weight of active compound is mixed with the stated amounts of solvent and emulsifier, and the concentrate is diluted with water to the desired concentration.
To test for preventive activity, young plants are sprayed with the preparation of active compound at the stated rate of application. After the spray coating has dried on, the plants are inoculated with an aqueous spore suspension of Plasmopara viticola and then remain for 1 day in an incubation cabinet at approximately 20° C. and a relative atmospheric humidity of 100%. The plant is subsequently placed for 4 days in a greenhouse at approximately 21° C. and a relative atmospheric humidity of approximately 90%. The plants are then misted and placed for 1 day in an incubation cabinet.
The test is evaluated 6 days after the inoculation. 0% means an efficacy which corresponds to that of the untreated control, while an efficacy of 100% means that no disease is observed.

A further data set concerns Puccinia recondita. Description: Example E: in vivo preventive test on Puccinia recondita (brown rust on wheat). The conditions noted are these: 500 ppm, preventive spray on wheat plants, contamination after 24 hours, grading 12 days after contamination vs control plants. On the procedure:
In Vivo Preventive Test on Puccinia recondita (Brown Rust on Wheat)
(§2) The active ingredients tested are prepared by homogenization in a mixture of acetone/tween/DMSO, and then diluted with water to obtain the desired active material concentration.
Wheat plants (“Scipion” variety), sown in starter cups on a 50/50 peat soil-pozzolana substrate and grown at 22° C., are treated at the 1-leaf stage (10 cm height) by spraying with the active ingredient prepared as described above. Plants, used as controls, are treated with the mixture of acetone/tween/DMSO/water not containing the active material.
After 24 hours, the plants are contaminated by spraying the leaves with an aqueous suspension of Puccinia recondita spores (100 000 spores per ml). The spores are collected from an infected plant and are suspended in water containing 2.5 ml/l of Tween 80 at 10%. The contaminated wheat plants are incubated for 24 hours at 20° C. and at 100% relative humidity, and then for 10 days at 20° C. and at 70-80% relative humidity.
Grading (% of efficacy) is carried out 12 days after the contamination, in comparison with the control plants.
as §1

A further data set has as its system Uromyces appendiculatus. Description: Example C: in vivo preventive test on Uromyces appendiculatus (bean rust). To be noted: 500 ppm, preventive spray on bean plants, contamination after 24 hours, grading 11 days after contamination vs control plants. The method, then:
In Vivo Preventive Test on Uromyces appendiculatus (Bean Rust)
as §2
Bean plants (“Saxa” variety), sown in starter cups on a 50/50 peat soil-pozzolana substrate and grown at 24° C., are treated at the 2-leaf stage (9 cm height) by spraying with the active ingredient prepared as described above. Plants, used as controls, are treated with the mixture of acetone/tween/DMSO/water not containing the active material.
After 24 hours, the plants are contaminated by spraying the leaves with an aqueous suspension of Uromyces appendiculatus spores (150 000 spores per ml). The spores are collected from infected plants and are suspended in water containing 2.5 ml/l of Tween 80 at 10%. The contaminated bean plants are incubated for 24 hours at 20° C. and at 100% relative humidity, and then for 10 days at 20° C. and at 70-80% relative humidity.
Grading (% of efficacy) is carried out 11 days after the contamination, in comparison with the control plants.
as §1

For another data set, the system named is Pyrenophora teres. The data set can be described thus: Example D: in vivo preventive test on Pyrenophora teres (net blotch on barley). To be noted: 500 ppm, preventive spray on barley plants, contamination after 24 hours, grading 14 days after contamination vs control plants. The method, then: In Vivo Preventive Test on Pyrenophora teres (Net Blotch on Barley)
as §2
Barley plants (“Plaisant” variety), sown in starter cups on a 50/50 peat soil-pozzolana substrate and grown at 22° C., are treated at the 1-leaf stage (10 cm height) by spraying with the active ingredient prepared as described above. Plants, used as controls, are treated with the mixture of acetone/tween/DMSO/water not containing the active material.
After 24 hours, the plants are contaminated by spraying the leaves with an aqueous suspension of Pyrenophora teres spores (12 000 spores per ml). The spores are collected from a 12-day-old culture. The contaminated barley plants are incubated for 48 hours at 20° C. and at 100% relative humidity, and then for 12 days at 20° C. at 70-80% relative humidity.
Grading (% of efficacy) is carried out 14 days after the contamination, in comparison with the control plants.
as §1

Broadly, the chromatographic logP is lipophilicity estimated from chromatographic retention. A high value points to a more lipophilic compound. The compound `CCCCOCCNc1cccc(CON=C(c2ccccc2)c2nc(=O)on2C)n1` [Example 6] came in with an Eff. % in the data set with Phytophthora infestans [1] of 95%. Besides, the chromatographic logP in [2] was found to be 2.13.
For the compound `Cc1cccc(C(=NOCc2cccc(NC(=O)COc3ccccc3)n2)c2nc(=O)on2C)c1` [Example 55], the “% efficacy” value in the data set with Botrytis cinerea is 85%. Besides, the pest or weed control at 500 ppm came to 100% in the data set with Phytophthora infestans [3] and 83% in the data set with Pyricularia oryzae. The chromatographic logP in data set [2] is 3.39.
Compound `CCCCCCNc1cccc(CON=C(c2ccccc2)c2nc(=O)on2C)n1` [Example 5] came in with an Eff. % in the data set on Phytophthora infestans [1] of 95%. Further, the pest or weed control at 10 ppm with Plasmopara viticola is 96%. Moreover, the chromatographic logP in data set [2] was found to be 2.2.
The matching figures for `Cn1oc(=O)nc1C(=NOCc1cccc(NCC2CCCCC2)n1)c1ccccc1` [Example 4]: 95%, 94% and 2.44.
With `COc1ccc(CC(=O)Nc2cccc(CON=C(c3ccccc3)c3nc(=O)on3C)n2)cc1` [Example 16], the “% efficacy” value with Puccinia recondita is recorded as 89%; with Uromyces appendiculatus it was 81%. For the same compound, the pest or weed control at 10 ppm with Plasmopara viticola was 94%. In the data set on Phytophthora infestans [3], the pest or weed control at 500 ppm came out at 100%. In [2], the chromatographic logP stood at 2.92.
Take `Cn1oc(=O)nc1/C(=N\OCc1cccc(NC(=O)OC(C)(C)C)n1)c1cccc(F)c1` [Example 20, tert-butyl {6-[({[(Z)-(2-methyl-5-oxo-2,5-dihydro-1,2,4-oxadiazol-3-yl)(3-fluorophenyl)methylene]amino}oxy)methyl]pyridin-2-yl}carbamate]: the pest or weed control at 10 ppm in the data set with Plasmopara viticola was 74%. The pest or weed control at 500 ppm was determined as 100% in the data set on Phytophthora infestans [3] and 81% in the data set on Pyricularia oryzae. For the same compound, the chromatographic logP in data set [2] was 3.46.
Take `C#CCC(C)(C)OC(=O)Nc1cccc(CO/N=C(/c2ccccc2)c2nc(=O)on2C)n1` [Example 35, 2-methylpent-4-yn-2-yl {6-[({[(Z)-(2-methyl-5-oxo-2,5-dihydro-1,2,4-oxadiazol-3-yl)(phenyl)methylene]amino}oxy)methyl]pyridin-2-yl}carbamate]: the “% efficacy” value in the data set with Botrytis cinerea was 90%. Moreover, the pest or weed control at 10 ppm in the data set with Plasmopara viticola was found to be 100%. Besides, the pest or weed control at 500 ppm in the data set with Phytophthora infestans [3] was determined as 100%. Further, the chromatographic logP in data set [2] is 3.31.
`Cn1oc(=O)nc1C(=NOCc1cccc(NC(=O)C(C)(C)C)n1)c1ccccc1` [Example 9]: the “% efficacy” value in the data set on Puccinia recondita is 71%. The pest or weed control at 500 ppm was 99% in the data set on Phytophthora infestans [3] and 71% in the data set with Pyricularia oryzae. This compound yielded a chromatographic logP in data set [2] of 2.86.
Regarding `COc1cccc(C(=NOCc2cccc(NC(=O)COc3ccccc3)n2)c2nc(=O)o[nH]2)c1` [Example 45], in the data set with Pyrenophora teres, the “% efficacy” value came to 71%. In addition, the pest or weed control at 500 ppm in the data set with Phytophthora infestans [3] was 88%. Moreover, in data set [2], the chromatographic logP is 3.17.
For the compound `Cn1oc(=O)nc1C(=NOCc1cccc(NCCc2ccccc2)n1)c1ccccc1` [Example 7], the Eff. % in the data set with Phytophthora infestans [1] is 95%. Further, the pest or weed control at 10 ppm in the data set on Plasmopara viticola came to 96%. Further, the chromatographic logP in data set [2] is 2.23.
For the compound `CC(C)CC(=O)Nc1cccc(CON=C(c2ccccc2)c2nc(=O)on2C)n1` [Example 19], in the data set with Puccinia recondita, the “% efficacy” value is listed as 89%. Also, the pest or weed control at 500 ppm in the data set with Phytophthora infestans [3] was 100%. In data set [2], this compound gave a chromatographic logP of 2.82.
Turning to `Cn1oc(=O)nc1C(=NOCc1cccc(NC(=O)c2cccc(F)c2)n1)c1ccccc1` [Example 10], the “% efficacy” value in the data set on Botrytis cinerea is given as 71%. The pest or weed control at 500 ppm in the data set with Phytophthora infestans [3] worked out at 99%; with Pyricularia oryzae, 79%. This compound also gave a chromatographic logP in data set [2] of 3.11.
Consider `Cn1oc(=O)nc1/C(=N\OCc1cccc(NC(=O)OC(C)(C)C)n1)c1ccccc1` [Example 2, tert-butyl {6-[({[(Z)-(2-methyl-5-oxo-2,5-dihydro-1,2,4-oxadiazol-3-yl)(phenyl)methylene]amino}oxy)methyl]pyridin-2-yl}carbamate], for which the Eff. % in the data set on Phytophthora infestans [1] amounted to 100%. For the same compound, in the data set on Plasmopara viticola, the pest or weed control at 10 ppm was found to be 100%. In data set [2], this compound yielded a chromatographic logP of 3.31.
Take `COc1cccc(C(=NOCc2cccc(NC(=O)OC(C)(C)C)n2)c2nc(=O)on2C)c1` [Example 22]: the “% efficacy” value with Puccinia recondita is on record as 94%. Moreover, the chromatographic logP in data set [2] was 3.39.
For the compound `CCCC(C)C(=O)Nc1cccc(CON=C(c2ccccc2)c2nc(=O)on2C)n1` (stereo not drawn) [Example 18], in the data set on Puccinia recondita, the “% efficacy” value was 78%. The pest or weed control at 500 ppm with Phytophthora infestans [3] came out at 100%. The compound also registered a chromatographic logP in data set [2] of 3.19.
In the case of `Cn1oc(=O)nc1C(=NOCc1cccc(NC(=O)OCc2ccccc2)n1)c1ccccc1` [Example 17], the “% efficacy” value in the data set on Puccinia recondita amounted to 83%. The pest or weed control at 10 ppm in the data set with Plasmopara viticola was 82%. Also, in the data set with Phytophthora infestans [3], the pest or weed control at 500 ppm was 100%. This compound also yielded a chromatographic logP in data set [2] of 3.41.
`C#CCCOC(=O)Nc1cccc(CO/N=C(/c2ccccc2)c2nc(=O)on2C)n1` [Example 1, but-3-yn-1-yl {6-[({[(Z)-(2-methyl-5-oxo-2,5-dihydro-1,2,4-oxadiazol-3-yl)(phenyl)methylene]amino}oxy)methyl]pyridin-2-yl}carbamate] had an Eff. % in the data set with Phytophthora infestans [1] of 98%. For the same compound, the pest or weed control at 10 ppm in the data set on Plasmopara viticola came out at 99%. In data set [2], the chromatographic logP is 2.71.
